# Results from patent publication US20190134005A1 (BioMarin Pharmaceutical Inc., priority 2016, published 2019).
# Target: T1, human CGT (Homo sapiens, UniProt Q16880)
# T1 sequence (Q16880 21-541): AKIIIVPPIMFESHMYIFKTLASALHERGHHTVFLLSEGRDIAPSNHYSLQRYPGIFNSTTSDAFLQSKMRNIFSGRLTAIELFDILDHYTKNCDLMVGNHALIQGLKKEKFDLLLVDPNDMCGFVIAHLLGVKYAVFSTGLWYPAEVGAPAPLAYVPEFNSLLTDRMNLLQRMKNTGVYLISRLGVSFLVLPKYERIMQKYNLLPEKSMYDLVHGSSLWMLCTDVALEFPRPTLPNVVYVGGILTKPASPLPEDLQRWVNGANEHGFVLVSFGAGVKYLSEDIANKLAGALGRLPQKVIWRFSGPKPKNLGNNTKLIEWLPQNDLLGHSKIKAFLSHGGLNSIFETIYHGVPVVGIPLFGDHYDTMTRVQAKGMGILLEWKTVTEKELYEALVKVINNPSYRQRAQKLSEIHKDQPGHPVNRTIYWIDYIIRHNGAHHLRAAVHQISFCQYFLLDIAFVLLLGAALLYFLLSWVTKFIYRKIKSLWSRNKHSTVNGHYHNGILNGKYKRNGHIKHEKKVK
# Assay: CGT Enzyme Assay (Biological Example 2, RapidFire/MS/MS method with 0.01% Tween 80 added)
# Format: biochemical
# Conditions: enzymatic assay, CHO/CGT lysate
# Procedure: Full-length human CGT cDNA was cloned into the BamH1/Xho1 site of pcDNA3.1 (+) mammalian expression vector (V90-20, Invitrogen, Carlsbad, Calif.) and the plasmid was transfected into Chinese hamster ovary (CHO) cells. Lysate was prepared using M-PER (Mammalian Protein Extraction Reagent, ThermoFisher Scientific, Grand Island, N.Y.) in the presence of a protease inhibitor cocktail (P8340, Sigma, Saint Louis, Mo.). Each 100 mm dish (100% confluent, approximately 1×10^7 cells) was lysed with 250 μL of M-PER containing protease inhibitors. Protein concentration was determined using a Pierce BCA protein assay kit (ThermoFisher Scientific). […] The final concentration of DMSO was 0.5% in both compound-treated and mock-treated samples. Each individual reaction was diluted with 80 μL of methanol:acetronitrile (1:3) containing 5 μM N-docdecanoyl-NBD-galactosylceramide (internal standard) to stop the reaction. 200 μL H2O:acetonitile (1:1) was added to precipitate the protein. After sufficient mixing, the plates were centrifuged at 2469 g for 38 minutes, 200 μl of supernatant was transferred to a LC-MS 96-deep well plate and a second spin was performed at 2469 g for 10 minutes. The final supernatant was injected in triplicate for RapidFire/MS/MS analysis.
# The quantitative analysis of C6-NBD-dihydro-ceramide and C6-NBD-dihydro-galactosylceramide was performed on a Rapid Fire 360 high-throughput mass spectrometry system (Agilent Technologies, Palo Alto, Calif.) coupled with a API4000^+ triple quadrupole mass spectrometer (Applied Biosystems, Concord, Ontario, Canada). RapidFire software packages, including RapidFire Control panel, RapidFire UI and RapidFire Integrator (Agilent Technologies), were used to control the RapidFire instrument and to process data. Analyst 1.6.2 software packages (Applied Biosystems) were used to control the MS system and acquire MS data. 10 μL of sample was loaded on a micro-scale C4 solid-phase extraction (SPE) cartridge (Agilent Technologies) and salts were removed using water supplemented with 0.1% formic acid at the flow rate of 1.5 mL/min for 3 sec. C6-NBD-dihydro-ceramide and C6-NBD-dihydro-galactosylceramide were co-eluted into the mass spectrometer using acetonitrile containing 0.1% formic acid at the flow rate of 1.0 mL/min for 3 sec. The total cycle time of one injection was 8 secs. The MS/MS detection was performed in ESI negative mode.
# The C6-NBD-dihydro-galactosylceramide reading was normalized first by dividing the peak area of C6-NBD-dihydro-galactosylceramide by the peak area of the internal standard, N-docdecanoyl-NBD-galactosylceramide.
row,Structure (SMILES),IC50 [nM]
1,"CCC[C@]1(C)[C@@H](c2cccc(OC(F)(F)F)c2)N(c2ccc(C#N)cc2)C(=O)N1c1ccc(C#N)cc1 [Example 52-3, 4,4′-((4R,5R)-4-methyl-2-oxo-4-propyl-5-(3-(trifluoromethoxy)phenyl)imidazolidine-1,3-diyl)dibenzonitrile]",1000 to 10000
2,"Cc1ccc(N2C(=O)N(c3ccc(C#N)cc3)C(C)(C)[C@@H]2c2cccc(C#N)c2)cc1 [Example 54-2, (S)-3-(1-(4-cyanophenyl)-5,5-dimethyl-2-oxo-3-(p-tolyl)imidazolidin-4-yl)benzonitrile]",< 1000
3,"CC1(C)[C@H](c2cccc(OC(F)(F)F)c2)N(c2ccccc2)C(=O)N1c1ccccc1 [Example 26-2, (S)-4,4-dimethyl-1,3-diphenyl-5-(3-(trifluoromethoxy)phenyl)imidazolidin-2-one]",1000 to 10000
4,"N#Cc1cccc([C@@H]2N(c3ccc(Cl)cc3)C(=O)N(c3ccc(Cl)cc3)C23COC3)c1 [Example 30-2, (S)-3-(5,7-bis(4-chlorophenyl)-6-oxo-2-oxa-5,7-diazaspiro[3.4]octan-8-yl)benzonitrile]",< 1000
5,O=C1N(c2ccc(Cl)cc2)C2CCCC2(c2cccc(O)c2)N1c1ccc(Cl)cc1 (stereo not drawn) [Example 18],10000 to 30000
6,"CC1(C)[C@H](c2cccc(C#N)c2)N(c2ccc(Cl)cc2)C(=O)N1c1ccc(Cl)cc1 [Example 10-2, (S)-3-(1,3-bis(4-chlorophenyl)-5,5-dimethyl-2-oxoimidazolidin-4-yl)benzonitrile]",< 1000
7,"CC[C@@]1(C)[C@@H](c2cccc(C#N)c2)N(c2ccc(Cl)cc2)C(=O)N1c1ccc(Cl)cc1 [Example 34-3, 3-((4R,5S)-1,3-bis(4-chlorophenyl)-5-ethyl-5-methyl-2-oxoimidazolidin-4-yl)benzonitrile]",< 1000
8,CC1(C)C(c2cccc(C(F)(F)F)c2)N(c2ccc(Cl)cc2)C(=O)N1c1ccc(Cl)cc1 (stereo not drawn) [Example 6],< 1000

# The remaining lines, values ahead:
row,IC50 [nM],Structure (SMILES)
1,< 1000,"C[C@]1(C(F)(F)F)[C@@H](c2cccc(OC(F)(F)F)c2)N(c2ccc(Br)cc2)C(=O)N1c1ccc(C#N)cc1 [Example 44-2, 4-((4R,5R)-3-(4-bromophenyl)-5-methyl-2-oxo-4-(3-(trifluoromethoxy)phenyl)-5-(trifluoromethyl)imidazolidin-1-yl)benzonitrile]"
2,< 1000,"CC[C@@]1(C)[C@H](c2cccc(C#N)c2)N(c2ccc(Cl)cc2)C(=O)N1c1ccc(Cl)cc1 [Example 34-1, 3-((4S,5S)-1,3-bis(4-chlorophenyl)-5-ethyl-5-methyl-2-oxoimidazolidin-4-yl)benzonitrile]"
3,< 1000,"CCC[C@]1(C)[C@H](c2cccc(OC(F)(F)F)c2)N(c2ccc(Cl)cc2)C(=O)N1c1ccc(Cl)cc1 [Example 22-3, (4R,5S)-1,3-bis(4-chlorophenyl)-4-methyl-4-propyl-5-(3-(trifluoromethoxy)phenyl)imidazolidin-2-one]"
4,10000 to 30000,"N#Cc1ccc(N2C(=O)N(c3ccc(Cl)cc3)C3(COC3)[C@H]2c2cccc(OC(F)(F)F)c2)cc1 [Example 47-1, (R)-4-(5-(4-chlorophenyl)-6-oxo-8-(3-(trifluoromethoxy)phenyl)-2-oxa-5,7-diazaspiro[3.4]octan-7-yl)benzonitrile]"
5,< 1000,"CCC1(CC)[C@@H](c2cccc(OC(F)(F)F)c2)N(c2ccc(Cl)cc2)C(=O)N1c1ccc(Cl)cc1 [Example 17-1, (R)-1,3-bis(4-chlorophenyl)-4,4-diethyl-5-(3-(trifluoromethoxy)phenyl)imidazolidin-2-one]"
6,10000 to 30000,"N#Cc1cccc([C@@]23CCCC[C@@H]2N(c2ccc(Cl)cc2)C(=O)N3c2ccc(Cl)cc2)c1 [Example 14-2, 3-((3aS,7aS)-1,3-bis(4-chlorophenyl)-2-oxooctahydro-3aH-benzo[d]imidazol-3a-yl)benzonitrile]"
7,1000 to 10000,"Cc1ccc(N2C(=O)N(c3ccc(C)cc3)C(C)(C)[C@H]2c2cccc(OC(F)(F)F)c2)cc1 [Example 21-1, (R)-4,4-dimethyl-1,3-di-p-tolyl-5-(3-(trifluoromethoxy)phenyl)imidazolidin-2-one]"
